Measured values published in the NIST ThermoML archive (doi:10.1016/j.fluid.2012.08.016).

Assay: xn = mol fraction of the nth substance listed
Conditions: Liquid, Vibrating tube method, x2 = 0.667

C[N+](C)(C)CCO.[Cl-] [choline chloride] + OCC(O)CO
mass density [kg/m3]
Conditions | 298.15 K | 303.15 K | 308.15 K | 313.15 K | 318.15 K | 323.15 K
100 kPa | 1192.1 | 1189.2 | 1186.2 | 1183.4 | 1180.5 | 1177.7
5000 kPa | 1193.6 | 1190.7 | 1187.7 | 1184.9 | 1182 | 1179.2
10000 kPa | 1195 | 1192.1 | 1189.2 | 1186.3 | 1183.5 | 1180.6
15000 kPa | 1196.3 | 1193.5 | 1190.6 | 1187.7 | 1184.9 | 1182.1
20000 kPa | 1197.7 | 1194.8 | 1192 | 1189.1 | 1186.3 | 1183.5
25000 kPa | 1199.1 | 1196.2 | 1193.3 | 1190.5 | 1187.7 | 1184.9
30000 kPa | 1200.4 | 1197.6 | 1194.7 | 1191.9 | 1189.1 | 1186.3
35000 kPa | 1201.7 | 1198.9 | 1196 | 1193.3 | 1190.4 | 1187.7
40000 kPa | 1203 | 1200.2 | 1197.4 | 1194.6 | 1191.8 | 1189.1
45000 kPa | 1204.3 | 1201.5 | 1198.7 | 1195.9 | 1193.1 | 1190.4
50000 kPa | 1205.6 | 1202.8 | 1200 | 1197.2 | 1194.4 | 1191.7
